Test results taken from PMC4858680, “A platinum-based hybrid drug design approach to circumvent acquired resistance to molecular targeted tyrosine kinase inhibitors” (Scientific Reports, 2016).
Like-named read-outs stand apart in the source and are kept apart here.

Assays:
TYRO3 = molecular target: T1, TYRO3 (Homo sapiens, UniProt Q06418); type: binding; conditions: for Percent control: 10 μM
T1 construct: purchased DiscoveRx Corporation (KINOMEscan service)
T1 sequence (Q06418 41-890): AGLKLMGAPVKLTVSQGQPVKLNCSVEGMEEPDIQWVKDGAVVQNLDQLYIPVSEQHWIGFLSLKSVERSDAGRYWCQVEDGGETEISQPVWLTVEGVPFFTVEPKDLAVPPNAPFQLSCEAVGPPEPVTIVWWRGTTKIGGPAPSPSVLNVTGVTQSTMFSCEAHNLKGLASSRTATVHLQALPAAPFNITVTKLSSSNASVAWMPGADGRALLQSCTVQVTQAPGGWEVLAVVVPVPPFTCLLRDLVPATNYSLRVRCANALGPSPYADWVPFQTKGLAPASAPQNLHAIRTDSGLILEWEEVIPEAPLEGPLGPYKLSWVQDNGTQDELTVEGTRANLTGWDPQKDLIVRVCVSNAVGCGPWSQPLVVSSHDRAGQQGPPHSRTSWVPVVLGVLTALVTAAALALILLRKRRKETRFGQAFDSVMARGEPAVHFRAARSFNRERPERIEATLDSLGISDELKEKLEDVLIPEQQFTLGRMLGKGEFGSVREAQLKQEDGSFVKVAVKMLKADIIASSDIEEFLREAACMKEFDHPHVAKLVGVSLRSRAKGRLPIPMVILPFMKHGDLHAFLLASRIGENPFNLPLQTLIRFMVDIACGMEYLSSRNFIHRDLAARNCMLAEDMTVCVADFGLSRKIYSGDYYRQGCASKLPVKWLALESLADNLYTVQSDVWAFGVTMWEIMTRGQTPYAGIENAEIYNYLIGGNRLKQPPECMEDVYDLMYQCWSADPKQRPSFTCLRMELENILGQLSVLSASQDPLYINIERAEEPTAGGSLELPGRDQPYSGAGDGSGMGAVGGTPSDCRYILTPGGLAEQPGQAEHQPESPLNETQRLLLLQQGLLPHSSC

YES = molecular target: T2, YES (Homo sapiens, UniProt P07947); type: binding; conditions: for Percent control: 10 μM
T2 construct: purchased DiscoveRx Corporation (KINOMEscan service)
T2 sequence (P07947 whole entry): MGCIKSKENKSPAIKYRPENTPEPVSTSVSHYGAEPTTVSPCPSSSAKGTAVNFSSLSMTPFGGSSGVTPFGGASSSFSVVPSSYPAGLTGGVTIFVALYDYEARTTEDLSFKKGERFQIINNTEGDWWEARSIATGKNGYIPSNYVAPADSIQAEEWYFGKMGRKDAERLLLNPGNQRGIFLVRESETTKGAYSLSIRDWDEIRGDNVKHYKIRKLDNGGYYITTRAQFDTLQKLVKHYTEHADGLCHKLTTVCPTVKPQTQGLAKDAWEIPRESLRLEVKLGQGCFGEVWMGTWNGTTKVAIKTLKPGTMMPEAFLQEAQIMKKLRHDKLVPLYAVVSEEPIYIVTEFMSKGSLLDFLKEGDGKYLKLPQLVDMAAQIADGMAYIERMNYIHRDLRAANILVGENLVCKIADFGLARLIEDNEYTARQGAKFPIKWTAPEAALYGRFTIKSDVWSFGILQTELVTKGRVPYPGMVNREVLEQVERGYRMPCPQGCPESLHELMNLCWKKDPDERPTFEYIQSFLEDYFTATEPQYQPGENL

ALK = ALK (Homo sapiens, UniProt Q9UM73); conditions: 10 μM
ALK, sequence (Q9UM73 19-1620): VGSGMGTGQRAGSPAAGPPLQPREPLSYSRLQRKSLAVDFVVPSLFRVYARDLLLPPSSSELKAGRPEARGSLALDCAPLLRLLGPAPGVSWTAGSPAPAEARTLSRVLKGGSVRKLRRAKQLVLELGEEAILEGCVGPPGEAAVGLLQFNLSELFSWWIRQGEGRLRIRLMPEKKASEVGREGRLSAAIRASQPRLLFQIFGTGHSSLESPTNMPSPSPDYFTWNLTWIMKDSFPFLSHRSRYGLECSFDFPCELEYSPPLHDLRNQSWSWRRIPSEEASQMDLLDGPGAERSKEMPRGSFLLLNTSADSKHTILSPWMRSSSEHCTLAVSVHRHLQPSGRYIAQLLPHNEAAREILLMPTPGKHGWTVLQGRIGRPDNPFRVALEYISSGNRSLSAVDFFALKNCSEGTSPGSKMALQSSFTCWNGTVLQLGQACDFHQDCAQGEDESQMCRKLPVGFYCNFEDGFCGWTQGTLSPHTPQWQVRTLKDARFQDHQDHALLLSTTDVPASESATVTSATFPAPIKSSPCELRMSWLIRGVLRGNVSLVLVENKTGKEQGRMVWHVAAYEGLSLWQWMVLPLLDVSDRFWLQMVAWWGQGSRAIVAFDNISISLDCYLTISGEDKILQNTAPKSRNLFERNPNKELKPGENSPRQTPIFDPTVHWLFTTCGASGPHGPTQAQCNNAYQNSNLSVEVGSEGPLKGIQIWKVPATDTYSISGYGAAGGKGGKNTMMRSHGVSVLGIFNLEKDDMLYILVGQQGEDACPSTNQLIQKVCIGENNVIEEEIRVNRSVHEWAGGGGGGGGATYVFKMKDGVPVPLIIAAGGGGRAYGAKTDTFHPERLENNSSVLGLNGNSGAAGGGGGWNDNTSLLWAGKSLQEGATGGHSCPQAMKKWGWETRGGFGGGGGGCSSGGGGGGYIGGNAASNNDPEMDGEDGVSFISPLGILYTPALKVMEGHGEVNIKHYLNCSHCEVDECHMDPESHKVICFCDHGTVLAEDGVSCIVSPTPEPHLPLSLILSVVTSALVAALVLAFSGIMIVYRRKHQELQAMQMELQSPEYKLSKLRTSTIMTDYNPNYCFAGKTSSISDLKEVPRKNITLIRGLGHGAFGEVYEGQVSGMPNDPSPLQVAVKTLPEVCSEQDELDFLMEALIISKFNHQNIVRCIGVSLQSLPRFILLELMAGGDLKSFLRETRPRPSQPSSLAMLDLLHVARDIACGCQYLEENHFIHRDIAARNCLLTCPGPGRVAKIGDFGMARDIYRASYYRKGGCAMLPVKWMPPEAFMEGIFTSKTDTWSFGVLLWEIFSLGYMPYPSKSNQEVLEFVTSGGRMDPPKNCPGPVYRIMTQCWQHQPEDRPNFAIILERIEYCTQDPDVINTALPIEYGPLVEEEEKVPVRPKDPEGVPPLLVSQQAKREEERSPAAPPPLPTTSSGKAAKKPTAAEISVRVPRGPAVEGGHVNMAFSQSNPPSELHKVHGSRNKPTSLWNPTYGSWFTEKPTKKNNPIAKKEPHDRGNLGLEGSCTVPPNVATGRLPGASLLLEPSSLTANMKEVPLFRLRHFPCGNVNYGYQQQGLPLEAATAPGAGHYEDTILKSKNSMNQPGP

EPHB2 = molecular target: T3, EPHB2 (Homo sapiens, UniProt P29323); conditions: 10 μM
T3 sequence (P29323 19-1055): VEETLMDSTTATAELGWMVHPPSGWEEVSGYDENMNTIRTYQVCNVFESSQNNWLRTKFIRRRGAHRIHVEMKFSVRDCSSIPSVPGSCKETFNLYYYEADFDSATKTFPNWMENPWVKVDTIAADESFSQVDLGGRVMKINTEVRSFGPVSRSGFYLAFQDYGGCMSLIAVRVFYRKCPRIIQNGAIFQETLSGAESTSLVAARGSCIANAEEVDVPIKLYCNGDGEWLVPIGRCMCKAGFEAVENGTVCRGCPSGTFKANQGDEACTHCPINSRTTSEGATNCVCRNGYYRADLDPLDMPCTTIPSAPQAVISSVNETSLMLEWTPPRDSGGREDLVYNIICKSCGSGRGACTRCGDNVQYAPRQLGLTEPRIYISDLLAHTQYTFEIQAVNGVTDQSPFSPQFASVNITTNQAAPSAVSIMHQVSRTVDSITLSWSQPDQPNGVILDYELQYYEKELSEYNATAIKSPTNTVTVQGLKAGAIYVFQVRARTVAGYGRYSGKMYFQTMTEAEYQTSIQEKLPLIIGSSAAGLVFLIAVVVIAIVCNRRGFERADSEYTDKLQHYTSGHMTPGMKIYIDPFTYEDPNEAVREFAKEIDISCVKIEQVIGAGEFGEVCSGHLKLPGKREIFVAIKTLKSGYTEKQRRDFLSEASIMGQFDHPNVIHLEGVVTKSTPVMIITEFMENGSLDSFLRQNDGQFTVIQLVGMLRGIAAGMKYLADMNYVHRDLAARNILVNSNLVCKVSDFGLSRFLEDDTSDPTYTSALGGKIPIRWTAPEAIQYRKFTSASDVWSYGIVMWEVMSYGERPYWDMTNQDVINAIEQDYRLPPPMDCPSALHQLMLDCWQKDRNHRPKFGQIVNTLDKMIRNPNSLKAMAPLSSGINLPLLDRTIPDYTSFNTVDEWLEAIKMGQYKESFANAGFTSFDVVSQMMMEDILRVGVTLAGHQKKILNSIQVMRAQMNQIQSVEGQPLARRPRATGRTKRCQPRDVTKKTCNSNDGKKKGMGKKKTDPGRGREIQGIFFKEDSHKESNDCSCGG

FGFR2 = FGFR2 (Homo sapiens, UniProt P21802); conditions: 10 μM
FGFR2, sequence (P21802 22-821): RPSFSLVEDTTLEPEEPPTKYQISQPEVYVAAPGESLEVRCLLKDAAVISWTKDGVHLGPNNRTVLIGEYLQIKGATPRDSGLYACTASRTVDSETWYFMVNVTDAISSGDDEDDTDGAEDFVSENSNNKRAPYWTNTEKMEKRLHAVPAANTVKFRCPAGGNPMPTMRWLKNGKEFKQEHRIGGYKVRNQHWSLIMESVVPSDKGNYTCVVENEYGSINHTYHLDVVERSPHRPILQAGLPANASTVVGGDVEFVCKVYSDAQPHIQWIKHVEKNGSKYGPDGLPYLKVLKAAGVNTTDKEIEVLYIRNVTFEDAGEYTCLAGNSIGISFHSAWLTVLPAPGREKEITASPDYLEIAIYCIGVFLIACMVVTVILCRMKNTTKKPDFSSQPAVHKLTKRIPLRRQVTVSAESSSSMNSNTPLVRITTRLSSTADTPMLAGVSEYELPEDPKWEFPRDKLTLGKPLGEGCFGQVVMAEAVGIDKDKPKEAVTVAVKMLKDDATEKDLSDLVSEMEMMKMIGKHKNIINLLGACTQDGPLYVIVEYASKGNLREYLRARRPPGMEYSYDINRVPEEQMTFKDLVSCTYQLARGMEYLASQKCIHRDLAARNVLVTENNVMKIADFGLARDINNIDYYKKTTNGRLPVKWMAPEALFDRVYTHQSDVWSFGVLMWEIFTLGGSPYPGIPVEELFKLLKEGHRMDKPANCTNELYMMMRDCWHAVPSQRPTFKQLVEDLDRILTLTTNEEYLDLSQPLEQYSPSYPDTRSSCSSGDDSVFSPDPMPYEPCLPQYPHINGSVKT

FLT3(D835Y) = molecular target: T4, FLT3(D835Y) (Homo sapiens, UniProt P36888, D835Y)
T4 sequence (P36888 27-993 D835Y): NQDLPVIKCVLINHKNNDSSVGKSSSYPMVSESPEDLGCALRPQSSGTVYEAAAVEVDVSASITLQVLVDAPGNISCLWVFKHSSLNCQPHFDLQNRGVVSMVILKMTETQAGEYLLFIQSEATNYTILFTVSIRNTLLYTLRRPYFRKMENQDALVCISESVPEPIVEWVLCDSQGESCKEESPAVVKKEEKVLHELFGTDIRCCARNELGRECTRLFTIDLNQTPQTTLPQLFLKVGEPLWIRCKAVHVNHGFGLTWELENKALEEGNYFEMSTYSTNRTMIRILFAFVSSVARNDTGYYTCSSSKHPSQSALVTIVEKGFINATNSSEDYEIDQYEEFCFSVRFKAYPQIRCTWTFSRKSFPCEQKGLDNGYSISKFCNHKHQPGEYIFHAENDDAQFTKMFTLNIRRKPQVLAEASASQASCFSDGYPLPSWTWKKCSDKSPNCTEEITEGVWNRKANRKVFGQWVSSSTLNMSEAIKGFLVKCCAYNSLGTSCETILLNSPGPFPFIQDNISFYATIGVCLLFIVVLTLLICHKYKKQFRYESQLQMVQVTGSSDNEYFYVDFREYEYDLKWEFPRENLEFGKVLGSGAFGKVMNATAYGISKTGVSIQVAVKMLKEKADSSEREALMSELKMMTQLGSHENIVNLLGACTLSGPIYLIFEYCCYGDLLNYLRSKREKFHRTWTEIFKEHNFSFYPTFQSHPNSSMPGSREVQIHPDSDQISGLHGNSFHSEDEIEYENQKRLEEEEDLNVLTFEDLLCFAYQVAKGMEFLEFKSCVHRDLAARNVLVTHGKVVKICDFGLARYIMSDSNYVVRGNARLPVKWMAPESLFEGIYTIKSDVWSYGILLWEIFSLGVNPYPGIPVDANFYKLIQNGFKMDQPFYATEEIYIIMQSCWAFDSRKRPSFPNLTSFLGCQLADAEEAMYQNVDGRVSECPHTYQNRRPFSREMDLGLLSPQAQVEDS

Row | SMILES | Percent control (TYRO3) | Percent control (YES) | Percent control (ALK) | Percent control (EPHB2) | Percent control (FGFR2) | Percent control (FLT3(D835Y); FLT3(D835Y), 10 μM) | Percent control (FLT3(D835Y)) | remaining binding at 10 µM (TYRO3; read-out: Percent control) | remaining binding at 10 µM (YES; read-out: Percent control)
1 | Cc1ccc(NC(=O)c2ccc(CN3CCN(C)CC3)cc2)cc1Nc1nccc(-c2cccnc2)[n+]1[Pt-2]1([Cl])[NH2+]C2CCCCC2[NH2+]1 (centres unmarked) [1b, oxaliplatin-imatinib] | 80% | 100% | 99% | 95% | 100% | 81% | – | – | –
2 | C#Cc1cccc(Nc2c3cc(OCCOC)c(OCCOC)cc3nc[n+]2[Pt@SP2-2]([NH3+])([NH3+])[Cl])c1 [2a, cisplatin-erlotinib] | 85% | 100% | 79% | 94% | 91% | – | 21 | – | –
3 | COc1cc2c(Nc3ccc(Br)cc3F)[n+]([Pt-2]3([Cl])[NH2+]C4CCCCC4[NH2+]3)cnc2cc1OCC1CCN(C)CC1 (centres unmarked) [3b, oxaliplatin-vandetanib] | 0% | 23% | – | 69% | 67% | – | 46 | – | –
4 | Cc1ccc(NC(=O)c2ccc(CN3CCN(C)CC3)cc2)cc1Nc1nccc(-c2cccnc2)n1 [Imatinib, reference compound] | 100% | – | 100% | – | 100% | 100% | – | – | –
5 | COc1cc2c(Nc3ccc(Br)cc3F)ncnc2cc1OCC1CCN(C)CC1 [Vandetanib, reference compound] | – | – | – | – | – | – | – | 0.9% | 1.2%
